In PubChem BioAssay (NCI):
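Growth conditions: 96-well plates. Treatment: test compound, 48 hours, 5 concentrations. Analysis: linear interpolation between bracketing concentrations; unreached endpoints set to highest concentration. Definition used: TGI = concentration required for complete inhibition of growth.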 Peptide text beside a SMILES is read from it. * marks the point of attachment. Cbz = O=C(OCc1ccccc1)*

Tests used:
Assay in all cases: NCI anticancer screen, dose series, 48 h
COLO 205 colon = test system: COLO 205 colon
LOX IMVI melanoma = test system: LOX IMVI melanoma
MALME-3M melanoma = test system: MALME-3M melanoma
UACC-257 melanoma = test system: UACC-257 melanoma
A549 NSCLC = test system: A549 NSCLC
NCI-H522 lung = test system: NCI-H522 lung
MCF7 breast = test system: MCF7 breast
SF-268 CNS = test system: SF-268 CNS
DU-145 prostate = test system: DU-145 prostate
OVCAR-8 ovarian = test system: OVCAR-8 ovarian
U251 CNS = test system: U251 CNS
CCRF-CEM leukemia = test system: CCRF-CEM leukemia
SK-MEL-5 melanoma = test system: SK-MEL-5 melanoma
786-0 renal = test system: 786-0 renal
SNB-19 CNS = test system: SNB-19 CNS
SF-295 CNS = test system: SF-295 CNS
K-562 leukemia = test system: K-562 leukemia
SR leukemia = test system: SR leukemia

Compound | TGI (COLO 205 colon) [µM] | TGI (LOX IMVI melanoma) [µM] | TGI (MALME-3M melanoma) [µM] | TGI (UACC-257 melanoma) [µM] | TGI (A549 NSCLC) [µM] | TGI (NCI-H522 lung) [µM] | TGI (MCF7 breast) [µM] | TGI (SF-268 CNS) [µM] | TGI (DU-145 prostate) [µM] | TGI (OVCAR-8 ovarian) [µM] | TGI (U251 CNS) [µM] | TGI (CCRF-CEM leukemia) [µM] | TGI (SK-MEL-5 melanoma) [µM] | TGI (786-0 renal) [µM] | TGI (SNB-19 CNS) [µM] | TGI (SF-295 CNS) [µM] | TGI (K-562 leukemia) [µM] | TGI (SR leukemia) [µM]
COc1ccc(-c2n[nH]c3nc4ccccc4n3c2=O)cc1 | > 100 | > 100 | > 100 | > 100 | > 100 | > 100 | > 100 | > 100 | > 100 | > 100 | > 100 | > 100 | > 100 | > 100 | > 100 |  |  | 
N#CC(C#N)=C(N)/C(C#N)=C/c1ccc(O)c(O)c1 | > 100 | > 100 | > 100 | > 100 | > 100 | > 100 | > 100 | > 100 | > 100 | > 100 | > 100 | > 100 | > 100 | > 100 | > 100 | > 100 | > 100 | > 100
COc1cc(/C=C/C(=O)N[C@@H]2C(=O)N3[C@@H]2SC(C)(C)[C@@H]3C(=O)O)ccc1O | > 100 | > 100 |  | > 100 | > 100 | > 100 | > 100 | > 100 | > 100 | > 100 | > 100 | > 100 | > 100 | > 100 | > 100 | > 100 | > 100 | > 100
N#CCc1nc(-c2cc3ccc(O)cc3oc2=O)cs1 | > 100 | > 100 | > 100 | > 100 | > 100 | > 100 | > 100 | > 100 | > 100 | > 100 | > 100 | > 100 | > 100 | > 100 | > 100 | > 100 | > 100 | > 100
CNc1ccc(Cl)cc1C(=O)N1CCC[C@H]1CO | > 100 | > 100 | > 100 | > 100 | > 100 | > 100 | > 100 | > 100 | > 100 | > 100 | > 100 | > 100 |  | > 100 | > 100 | > 100 | > 100 | > 100
Cc1cc(=O)[nH]c(Sc2ccc([N+](=O)[O-])cc2[N+](=O)[O-])n1 | 15.7 | 8.67 | 35.7 | 44.7 | 40.2 | 22.9 | 64.2 | > 54.3 | 43.5 | 30 | 46.3 | 23.1 | 31.3 | 32.9 | > 66.8 | > 76.4 | > 100 | > 100
CNC(=O)OCC1=C(COC(=O)NC)CN(c2ccc(OC)cc2)C1 | > 100 | > 100 | > 100 | > 100 | > 100 |  | > 100 | > 100 | > 100 | > 100 | > 100 | > 100 | > 100 | > 100 | > 100 | > 100 | > 100 | > 100
CCOC(=O)c1nc2ccc(C(F)(F)F)cc2nc1NCc1ccc(F)cc1 | 81 | > 100 | > 100 | > 100 | > 100 | 88.9 | > 100 | 53.9 | > 100 | > 100 | > 100 | > 100 |  | > 100 | > 100 | > 100 | > 100 | > 100
COc1cccc(C=C(C#N)C#N)c1OC | > 100 |  | > 100 | > 100 | > 100 | > 100 | > 100 | > 100 | > 100 | > 100 | > 100 | > 100 | > 100 | > 100 | > 100 | > 100 | > 100 | > 100
O=C(O)c1ccc2[nH]c(=O)oc2c1 | > 100 | > 100 | > 100 | > 100 |  |  | > 100 | > 100 | > 100 | > 100 | > 100 | > 100 |  | > 100 | > 100 | > 100 | > 100 | > 100
C/C(=N\NC(N)=S)C(CN1CCCCC1)C(C1=C(O)c2ccccc2OC1)c1ccccc1 (configuration not stated) | > 100 | > 100 | > 100 | > 100 | > 100 | > 100 | > 100 | > 100 | > 100 | > 100 | > 100 | > 100 | > 100 | > 100 | > 100 | > 100 |  | > 100
O=C1CCCc2cc3c(cc21)CC1(C3)Cc2cc3c(cc2C1)C(=O)CCC3 | 5.06 | > 65.3 | > 62.6 | 31.2 | 53.8 | 6.15 | 15.3 | > 100 | 19 | 36.3 | 36.5 | > 34.2 | 7.09 | 64.8 | > 100 | > 56 | > 42.2 | 
CCOC1Oc2ccccc2-c2nc(N)ncc21 (configuration not stated) | > 100 | > 100 |  | > 100 | > 100 | 72.8 | > 100 | > 100 | > 100 | > 100 | > 100 | > 100 | > 100 | > 100 | > 100 | > 100 |  | 61.2
O=C(c1ccccc1)N1CCC(Nc2cccnc2)O1 (configuration not stated) |  |  | > 100 |  | > 100 |  | > 100 | > 100 | > 100 | > 100 | > 100 | > 100 | > 100 | > 100 | > 100 | > 100 | > 100 | > 100
CC(O)/C=C/C1OC(=O)CC1Nc1ccc(C=O)cc1 (configuration not stated) | > 100 | > 100 | > 100 | > 100 | > 100 |  | > 100 | > 100 | > 100 | > 100 | > 100 | > 100 | 33.5 | > 100 | > 100 | > 100 | > 100 | 73.8
N#Cc1n[nH]n(-c2ccccc2)c1=O | > 100 | > 100 | > 100 | > 100 | > 100 | > 100 | > 100 | > 100 | > 100 | > 100 | > 100 |  | > 100 | > 100 | > 100 | > 100 | > 100 | 
Cc1[nH]c2[nH]c(=S)nc(NC(N)=S)c2c1Cc1ccccc1 | 34 | 55.4 |  | > 100 | > 100 |  | > 100 | > 100 | > 100 | > 100 | > 100 | > 100 | 26.1 | 76.1 | > 100 | > 100 | > 100 | 36.2
Nc1nc(Cl)cc(NCC2(CO)CC=CC2)n1 | > 100 | > 100 | > 100 | > 100 | > 100 | > 100 | > 100 | > 100 | > 100 | > 100 | > 100 | > 100 | > 100 | > 100 | > 100 | > 100 | > 100 | 
CCOC(=O)COc1cc(-c2ccccc2)nc2cc(F)ccc12 | > 100 | > 100 | > 100 | > 100 | > 100 |  | > 100 | > 100 | > 100 | > 100 | > 100 | > 100 | > 100 | > 100 |  | > 100 | > 100 | > 100
COC(OC)[C@@H]1OC[C@H](n2ccc(=O)[nH]c2=O)[C@H]1O | > 100 | > 100 |  | > 100 | > 100 |  | > 100 | > 100 | > 100 |  | > 100 | > 100 | > 100 | > 100 | > 100 | > 100 | > 100 | > 100
COc1ccc(OC)c2c1ccc1c(C)c3ccccc3c(C)c12 |  | > 100 | > 100 | > 100 |  | > 100 | > 100 | > 100 | > 100 | > 100 | > 100 | > 100 |  | > 100 | > 100 |  | > 100 | > 100
Cc1ccc(C2SCc3nc4ccccc4n32)cc1 (configuration not stated) | 3.45 | 40.6 | 73.6 | 68.3 | > 100 | 85.6 | 20.3 | > 100 | > 100 | 30 | > 100 | > 100 | 5.28 | > 100 | > 100 | 7.17 | 14.8 | 
CC(=S)NC=C(C(N)=O)C(N)=O | > 100 | > 100 | > 100 | > 100 | > 100 | > 100 | > 100 | > 100 | > 100 | > 100 | > 100 | > 100 | > 100 | > 100 |  | > 100 | > 100 | > 100
CN(C(=O)C12C3(C(=O)O)C4C5(C(=O)O)C3C1(C(=O)O)C5C42C(=O)O)C(C)(C)C (configuration not stated) | > 100 | > 100 |  | > 100 | > 100 | > 100 | > 100 | > 100 | > 100 | > 100 | > 100 | > 100 | > 100 | > 100 | > 100 | > 100 | > 100 | > 100
N#CC(C#N)[C@@H]1CCC=C(Sc2ccccc2)[C@H]1Sc1ccccc1 | 4.86 |  | 13.6 | 6.48 | 12.7 | 6.01 | 14.1 | 14.7 | 10.1 | 9.37 | 23.6 | 7.26 | 18.4 | 5.64 | 29 | 19.9 | > 100 | > 27.1
CCOC(=O)CCC(NC(=O)CNC(=O)CNC(=O)C(CCC(=O)OCC)NC(=O)C(CCC(=O)OCC)NC(=O)C(CCC(=O)OCC)NC(=O)OCc1ccccc1)C(=O)NC(CCC(=O)OCC)C(=O)NC(CCC(=O)OCC)C(=O)OCC (configuration not stated) (Cbz-E(OEt)E(OEt)E(OEt)GGE(OEt)E(OEt)E(OEt)-OEt; configuration not given here) | > 75 | > 75 | > 75 | > 75 | > 75 | > 75 | > 75 | > 75 | > 75 | > 75 | > 75 | > 75 | > 75 | > 75 | > 75 | > 75 |  | > 75
O=c1oc2ccccc2c(O)c1Cc1ccccc1Cc1c(O)c2ccccc2oc1=O | > 100 | > 100 | > 100 | > 100 | > 100 | > 100 | > 100 | > 100 | > 100 | > 100 | > 100 | > 100 | > 100 | > 100 | > 100 | > 100 | > 100 | 
CCOC(=O)/C=C(\C(=O)OCC)n1cc(C)c(=O)n(Cc2cn(COCCOC(C)=O)nn2)c1=O | 11.1 | 35.8 |  | 33.7 | 56.8 |  | 22 | 31.3 | > 100 | 21.3 | 37.5 | 5.95 | 50.5 | > 100 | 39 | 46.3 | > 100 | 57.7
